# From publication PMC6629785, “Synthesis and Pharmacological Evaluation of a Novel Peptide Based on Anemonia sulcata BDS-I Toxin as a New KV3.4 Inhibitor Exerting a Neuroprotective Effect Against Amyloid-β Peptide” (Frontiers in Chemistry, 2019)
# Molecular target: T1, KV3.4 channels (Homo sapiens, UniProt Q03721)
# T1 construct: expressed in transfected cells; host or cells: CHO cells, transient transfection with Lipofectamine 2000; cDNAs provided by Professor Goldstein, University of Chicago
# T1 sequence (Q03721 1-635): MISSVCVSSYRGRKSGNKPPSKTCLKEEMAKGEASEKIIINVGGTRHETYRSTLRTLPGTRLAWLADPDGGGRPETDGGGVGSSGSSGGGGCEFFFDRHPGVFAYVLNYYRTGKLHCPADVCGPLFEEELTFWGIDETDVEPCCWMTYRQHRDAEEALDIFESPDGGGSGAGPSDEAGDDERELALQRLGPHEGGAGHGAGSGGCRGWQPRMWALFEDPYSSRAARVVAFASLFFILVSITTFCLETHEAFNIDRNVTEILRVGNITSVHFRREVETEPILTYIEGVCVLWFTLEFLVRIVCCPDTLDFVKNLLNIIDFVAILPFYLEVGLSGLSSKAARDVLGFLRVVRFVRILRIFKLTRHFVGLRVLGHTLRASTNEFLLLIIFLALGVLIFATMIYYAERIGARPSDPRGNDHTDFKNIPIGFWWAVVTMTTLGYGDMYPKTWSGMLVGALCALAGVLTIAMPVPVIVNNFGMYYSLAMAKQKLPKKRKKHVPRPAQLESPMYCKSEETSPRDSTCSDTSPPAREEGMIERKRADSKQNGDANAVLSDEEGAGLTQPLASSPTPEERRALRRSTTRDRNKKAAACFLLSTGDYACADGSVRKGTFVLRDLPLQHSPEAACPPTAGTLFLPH
# T1 sequence (Q9Y6H6 1-103 partner): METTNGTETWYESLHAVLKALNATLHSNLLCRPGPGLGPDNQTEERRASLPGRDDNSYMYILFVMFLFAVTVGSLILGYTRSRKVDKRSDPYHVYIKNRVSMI
# Assay: Whole-cell patch clamp of Kv3.4 currents in CHO cells transiently transfected with Kv3.4/MiRP2
# Assay type: cell-based
# Conditions: peptide 100 nM, acute application; CHO cells transfected with Kv3.4/MiRP2; whole-cell patch clamp
# Procedure: KV3.4 and MiRP2 channel subunits were expressed in Chinese hamster ovary (CHO) cells by transient transfection. CHO cells were grown in 100 mm plastic Petri dishes in Dulbecco's Modified Eagle Medium containing 10% fetal bovine serum (FBS), non-essential amino acids (0.1 mm), penicillin (50 U/ml), and streptomycin (50 μg/ml) in a humidified atmosphere at 37°C with 5% CO2 (Miceli et al., [2015]). KV3.4 and MiRP2 cDNAs were kindly provided by the Professor Goldstein of the Department of Pediatrics and Institute for Molecular Pediatric Sciences, University of Chicago, USA. For electrophysiological experiments, cells were seeded on glass cover-slips (Glaswarenfabrik Karl Hecht KG, Sondheim, Germany) coated with poly-L-lysine (50 μg/mL) and transfected the next day with the appropriate cDNAs using Lipofectamine 2000 according to guidelines for transfection. We performed electrophysiological experiments 48 h after transfection.
# Currents from CHO cells were recorded at room temperature 1-2 days after transfection. The extracellular solution contained the following (in mM): 138 NaCl, 5.4 KCl, 2 CaCl2, 1 MgCl2, 10 glucose and 10 HEPES, adjusted pH 7.4 with NaOH. The pipette solution contained (in mM) the following: 140 KCl, 2 MgCl2, 10 EGTA, 10 HEPES, 5 Mg-ATP, adjusted pH 7.4 with KOH (Miceli et al., [2015]). KV3.4 currents were measured by applying voltage steps from −100 mV to +60 mV from a holding potential of −80 mV (Abbott et al., [2001]). Moreover, the total outward K^+ currents were recorded in NGF-differentiated PC-12 cells using the extracellular solution contained the following (in mM): 150 NaCl, 5.4 KCl, 3 CaCl2, 1 MgCl2, 10 HEPES, adjusted pH 7.4 with NaOH. The pipette solution contained the following (in mM): 140 KCl, 2 MgCl2, 10 HEPES, 10 glucose, 10 EGTA, and 1 Mg-ATP adjusted at pH 7.4 with KOH (Diochot et al., [1998]). All experiments were performed in the presence of 50 nM tetrodotoxin (TTX) and 10 μ M nimodipine in the extracellular solution. To discriminate K^+ current components appropriate electrophysiological protocols were used (Pannaccione et al., [2007]). Steady-state activation and inactivation properties were measured by using appropriate protocols (Pannaccione et al., [2005]). Capacitive currents were elicited by 5-mV depolarizing pulses from −80 mV and acquired at a sampling rate of 50 kHz. The capacitance of the membrane was calculated according to the following equation: Cm = τc·Io/ΔEm (1-I∞/Io), where Cm is membrane capacitance, τc is the time constant of the membrane capacitance, Io is the maximum capacitance current value, ΔEm is the amplitude of the voltage step, and I∞ is the amplitude of the steady-state current. K^+ currents were recorded by patch-clamp technique in CHO and NGF-differentiated PC-12 cells using a commercially available amplifier (Axopatch 200B, Molecular Devices) and Digidata 1322A interface (Molecular Devices, USA). The whole-cell configuration of the patch-clamp technique was adopted using glass micropipettes with a resistance of 2.5-5.0 MΩ. Data were acquired and analyzed using the pClamp software (version 9, Molecular Devices).
# For the acute treatment, each peptide has been added in the extracellular solution. For each cell, we first recorded K^+ currents as previously described, in the absence of peptides. After that, we switched from the extracellular solution without BDS-I peptides to the extracellular solution containing the BDS-I peptide. In these conditions, we recorded K^+ currents until the steady-state was reached. This protocol has been performed to test the effect on KV3.4 currents of each BDS-I fragment as well as of BDS-I[1-8scr].
# To identify the smallest BDS-I amino acid sequence able to block Kv3.4 activity, we evaluated the effect of the newly synthesized BDS-I fragments in CHO cells transiently transfected with Kv3.4/MiRP2, by patch clamp technique in whole cell configuration. […]
row,Substance,ability to inhibit Kv3.4 currents (in words)
1,"H-GDLWILRG-OH [BDS-I[13-20], overlapping 8-amino-acid fragment of BDS-I]",did not
2,"H-GYGYTSNA-OH [BDS-I[25-32], overlapping 8-amino-acid fragment of BDS-I]",did not
3,"H-NAYKWPNI-OH [BDS-I[31-38], overlapping 8-amino-acid fragment of BDS-I]",did not
4,"H-NIAAYPH-OH [BDS-I[37-43], C-terminal 7-amino-acid fragment of BDS-I]",did not
5,"H-RGTAPGGY-OH [BDS-I[19-26], overlapping 8-amino-acid fragment of BDS-I]",did not
6,"H-SGKPGRGD-OH [BDS-I[7-14], overlapping 8-amino-acid fragment of BDS-I]",did not
